pEC50: −log10 of the molar value. Starred links: 1 amine or outer side, 2 acyl side, 3 side chain; linkers in the order of their positions; H or OH if unused. Non-standard residues stand in square brackets, D forms with d. Residues, ends and D or L forms follow the SMILES beside them. NMeF = CN[C@@H](Cc1ccccc1)C(=O)O; Suc = O=C(CCC(=O)[*:2])[*:1]
Columns and labels:
[1] = target: T1, neurokinin A receptor (Bos taurus, UniProt P05363); assay: [3H]inositol-1-phosphate (IP1) accumulation in SKLKB82#3 cells; type: cell-based, bovine
T1 construct: expressed in transfected cells
T1 sequence (P05363 1-384): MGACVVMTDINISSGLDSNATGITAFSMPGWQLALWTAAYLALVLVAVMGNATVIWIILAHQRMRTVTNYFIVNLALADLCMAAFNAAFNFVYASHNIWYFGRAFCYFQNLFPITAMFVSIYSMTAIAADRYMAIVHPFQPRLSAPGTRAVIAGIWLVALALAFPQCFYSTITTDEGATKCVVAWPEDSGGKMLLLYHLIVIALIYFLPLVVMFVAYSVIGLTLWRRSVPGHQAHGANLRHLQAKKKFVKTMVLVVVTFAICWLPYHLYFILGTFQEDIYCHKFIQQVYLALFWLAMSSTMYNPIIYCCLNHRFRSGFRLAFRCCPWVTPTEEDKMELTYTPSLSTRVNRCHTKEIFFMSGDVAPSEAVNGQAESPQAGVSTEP
Description: The culture was incubated for 22-24 hours under the same conditions. After this incubation, the cells were washed once with 1.0 ml of IMDM for ten minutes and incubated for ten minutes in 0.2 ml of incubation buffer (IMDM with 10 mM LiCl, 40 ug/ml bacitracin, 4 ug/ml leupeptin, and 4 ug/ml chymostatin). […] The reaction was terminated in 60 minutes by aspiring the media and adding 0.5 ml methanol. The cells were scraped from the wells and placed into chloroform resistant tubes. A second aliquot of 0.5 ml methanol was used to collect the remaining cells. The cell suspensions were mixed with 1.0 ml chloroform and 0.5 ml double distilled water to obtain a two phase separation. After centrifugation at 4200g for 10 minutes, 0.9 ml aliquots of the upper phase were added to 2.0 ml of distilled water and mixed. This mixture was passed through poly prep columns (Bio-Rad Laboratories, Richmond, Calif.) which consisted of 2.0 ml slurry of ten percent anion exchange resin in formate form (AG1-X8, 100-200 mesh, Bio-Rad Laboratories, Richmond, Calif.). The columns were washed three times with 5.0 ml of distilled water and two times with 5.0 ml of 5 mM sodium tetraborate/60 mM sodium formate (Baker, Phillipsburg, N.J.). […] The eluate was mixed with nine ml of Aquamix (West Chem., San Diego, Calif.) and the radioactivity was counted.

[2] = target: T1, neurokinin A receptor; assay: [125I]NKA receptor binding (saturation/Scatchard and competition) in B82 cells transfected with pSKR56S cDNA (SKLKB82#n); set-up: species or system bovine; settings: SKLKB82#3 cells; FIG. 4
Description: (§1) The homogenate is centrifuged at 48,000×g for 10 min at 4° C.

[3] = target: T2, NKA receptor (hamster urinary bladder) (Mesocricetus auratus, UniProt P51144); assay: [125I]NKA receptor binding in hamster urinary bladder membranes (standard control); settings: FIG. 4
T2 construct: the hamster urinary bladder membranes were run as a standard control; from tissue; host or cells: hamster urinary bladder membranes
T2 sequence (P51144 1-384): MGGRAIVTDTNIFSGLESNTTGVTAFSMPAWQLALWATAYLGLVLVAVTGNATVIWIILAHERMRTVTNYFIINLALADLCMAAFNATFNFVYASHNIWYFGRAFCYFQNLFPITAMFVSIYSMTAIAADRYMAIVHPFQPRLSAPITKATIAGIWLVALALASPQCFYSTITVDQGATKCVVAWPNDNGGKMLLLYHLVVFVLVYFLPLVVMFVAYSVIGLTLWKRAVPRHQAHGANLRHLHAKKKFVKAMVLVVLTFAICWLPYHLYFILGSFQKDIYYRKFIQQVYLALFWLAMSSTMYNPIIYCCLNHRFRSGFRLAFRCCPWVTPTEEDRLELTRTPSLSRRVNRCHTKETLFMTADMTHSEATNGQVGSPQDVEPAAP
Description: as §1

For `CSCC[C@H](NC(=O)[C@H](CC(C)C)NC(=O)CNC(=O)[C@H](Cc1ccccc1)N(C)C(=O)[C@H](Cc1ccccc1)NC(=O)[C@H](CC(=O)O)NC(=O)CCC(=O)O)C(N)=O` [senktide] (Suc-DF[NMeF]GLM-NH2), the pEC50 [1] was roughly 2.89, the “potency rank-order, inhibition of [125I]NKA receptor binding (KI)” value [2] was “followed by Nle^10 NKA (4-10), substance P, and senktide” and the “potency rank-order, inhibition of [125I]NKA receptor binding (KI)” value [3] was “followed by Nle^10 NKA (4-10), substance P, and senktide”.

Reference: US5807742A, “Neurokinin receptor cell lines” (Merrell Pharmaceuticals Inc., priority 1996, dated 1998)
